SMILES strings stand for the structures.

For experiment [1], the system named is Hep-3B cells. The experiment can be described thus: Cellular assay: EPO secretion in Hep-3B cells. Type of experiment: cell-based, human. Further details: EPO secretion, % of control compound: dose or concentration left out as unconfirmed. To be noted: Homo sapiens, Hep3B, 24 h, EPO secretion as percentage of control compound 7-[(4-Chloro-phenyl)-(5-methyl-isoxazol-3-ylamino)-methyl]-quinolin-8-ol, read-out: Cellular % EPO Stimulation.

Experiment [2] has as its target human PHD2181-417 (Homo sapiens (Human), UniProt Q9GZT9). Kind of experiment: PHD2 enzyme activity assay ([14C]-succinic acid production).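 Note: reaction ran 10 min with compound in Tris pH 7.5 buffer with catalase, DTT and ascorbate, labelled succinate freed of leftover 2-oxoglutarate by DNP precipitation, then beta counted.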 Type of experiment: biochemical. To be noted: PHD2181-417 polypeptide, HIF-1α peptide 10 μM, [5-14C]-2-oxoglutaric acid; 30 min pre-incubation; tested 10 μM to 3 nM.

Chain of human PHD2181-417 (Q9GZT9 181-417): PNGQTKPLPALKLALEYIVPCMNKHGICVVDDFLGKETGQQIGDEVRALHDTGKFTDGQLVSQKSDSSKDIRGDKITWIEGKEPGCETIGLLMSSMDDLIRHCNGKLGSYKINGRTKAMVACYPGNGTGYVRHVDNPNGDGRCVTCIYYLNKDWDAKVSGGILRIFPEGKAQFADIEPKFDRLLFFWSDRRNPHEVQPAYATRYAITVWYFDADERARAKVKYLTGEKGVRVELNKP

Turning to `CCCS(=O)(=O)c1cc2[nH]c(-n3cc(C(=O)O)cn3)nc2cc1Cl` [Example 102, 1-[5-Chloro-6-(propane-1-sulfonyl)-1H-benzoimidazol-2-yl]-1H-pyrazole-4-carboxylic Acid], in experiment [1], the EPO secretion, % of control compound came to 54.9%. Moreover, the “Enzyme pIC50” value in experiment [2] is given as 7.5.

As to `CCCS(=O)(=O)c1cc2[nH]c(-n3cc(C(=O)O)cn3)nc2cc1OC(F)(F)F` [Example 106, 1-[6-(Propane-1-sulfonyl)-5-trifluoromethoxy-1H-benzoimidazol-2-yl]-1H-pyrazole-4-carboxylic Acid], the EPO secretion, % of control compound in experiment [1] amounted to 124%. The “Enzyme pIC50” value in experiment [2] was 7.5.

`O=C(O)c1cnn(-c2nc3cc([S+]([O-])c4ccc(Cl)cc4)c(Cl)cc3[nH]2)c1` (stereo not shown) [Example 107]: the EPO secretion, % of control compound in experiment [1] stood at 47.6%. Also, the “Enzyme pIC50” value in experiment [2] came out at 7.2.

On to `C[S+]([O-])c1cc2[nH]c(-n3cc(C(=O)O)cn3)nc2cc1C(F)(F)F` (stereo not shown) [Example 108, 1-(6-Methanesulfinyl-5-trifluoromethyl-1H-benzoimidazol-2-yl)-1H-pyrazole-4-carboxylic Acid], for which, in experiment [1], the EPO secretion, % of control compound came to 20.4%. Also, the “Enzyme pIC50” value in experiment [2] is given as 7.3.

As for `O=C(O)c1cnn(-c2nc3cc(F)c(Br)cc3[nH]2)c1` [Example 109, 1-(6-Bromo-5-fluoro-1H-benzoimidazol-2-yl)-1H-pyrazole-4-carboxylic Acid], in experiment [1], the EPO secretion, % of control compound turned out to be 99%. The “Enzyme pIC50” value in experiment [2] was 6.7.

Take `O=C(O)c1cnn(-c2nc3c(F)cccc3[nH]2)c1` [Example 110, 1-(4-Fluoro-1H-benzoimidazol-2-yl)-1H-pyrazole-4-carboxylic Acid]: the EPO secretion, % of control compound in experiment [1] was found to be 45.9%. The “Enzyme pIC50” value in experiment [2] is reported as 6.2.

Turning to `O=C(O)c1cnn(-c2nc3c(F)c(F)ccc3[nH]2)c1` [Example 111, 1-(4,5-Difluoro-1H-benzoimidazol-2-yl)-1H-pyrazole-4-carboxylic Acid], in experiment [1], the EPO secretion, % of control compound is 32.6%. In experiment [2], the “Enzyme pIC50” value was found to be 6.6.

In the case of `O=C(O)c1cnn(-c2nc3c(F)cc(F)cc3[nH]2)c1` [Example 112, 1-(4,6-Difluoro-1H-benzoimidazol-2-yl)-1H-pyrazole-4-carboxylic Acid], the EPO secretion, % of control compound in experiment [1] worked out at 32%. Further, the “Enzyme pIC50” value in experiment [2] is 6.8.

For the molecule `O=C(O)c1cnn(-c2nc3cc(OC(F)(F)F)c(Cl)cc3[nH]2)c1` [Example 113, 1-(6-Chloro-5-trifluoromethoxy-1H-benzoimidazol-2-yl)-1H-pyrazole-4-carboxylic Acid], the EPO secretion, % of control compound in experiment [1] came out at 109%. In experiment [2], the “Enzyme pIC50” value came out at 6.98.

Take `O=C(O)c1cnn(-c2nc3cc4ccccc4cc3[nH]2)c1` [Example 114, 1-(1H-Naphtho[2,3-d]imidazol-2-yl)-1H-pyrazole-4-carboxylic Acid]: in experiment [1], the EPO secretion, % of control compound stood at 144%. In addition, the “Enzyme pIC50” value in experiment [2] is 6.3.

As to `O=C(O)c1cnn(-c2nc3c(ccc4ccccc43)[nH]2)c1` [Example 115, 1-(3H-Naphtho[1,2-d]imidazol-2-yl)-1H-pyrazole-4-carboxylic Acid], the EPO secretion, % of control compound in experiment [1] came out at 50%. Further, the “Enzyme pIC50” value in experiment [2] is 6.1.

`Cc1c(F)ccc2[nH]c(-n3cc(C(=O)O)cn3)nc12` [Example 116, 1-(5-Fluoro-4-methyl-1H-benzoimidazol-2-yl)-1H-pyrazole-4-carboxylic Acid]: in experiment [1], the EPO secretion, % of control compound is 18.3%. For the same molecule, in experiment [2], the “Enzyme pIC50” value was determined as 5.8.

In the case of `O=C(O)c1cnn(-c2nc3cc(N4CCCCC4)c(OC(F)(F)F)cc3[nH]2)c1` [Example 117, 1-(5-Piperidin-1-yl-6-trifluoromethoxy-1H-benzoimidazol-2-yl)-1H-pyrazole-4-carboxylic Acid], in experiment [1], the EPO secretion, % of control compound turned out to be 80%. In experiment [2], the “Enzyme pIC50” value is on record as 6.5.

For the molecule `O=C(O)c1cnn(-c2nc3cc(F)c(N4CCCCC4)cc3[nH]2)c1` [Example 118, 1-(5-Fluoro-6-piperidin-1-yl-1H-benzoimidazol-2-yl)-1H-pyrazole-4-carboxylic Acid], the EPO secretion, % of control compound in experiment [1] was 152%. The “Enzyme pIC50” value in experiment [2] is listed as 6.8.

Consider `CCOc1cc2[nH]c(-n3cc(C(=O)O)cn3)nc2cc1F` [Example 119, 1-(6-Ethoxy-5-fluoro-1H-benzoimidazol-2-yl)-1H-pyrazole-4-carboxylic Acid], for which the EPO secretion, % of control compound in experiment [1] is 69%. Besides, in experiment [2], the “Enzyme pIC50” value is 6.5.

Regarding `O=C(O)c1cnn(-c2nc3cc(C(=O)Nc4ccccc4)ccc3[nH]2)c1` [Example 120, 1-(5-Phenylcarbamoyl-1H-benzoimidazol-2-yl)-1H-pyrazole-4-carboxylic Acid], the EPO secretion, % of control compound in experiment [1] was determined as 21.1%. In addition, the “Enzyme pIC50” value in experiment [2] was 6.9.

With `O=C(O)c1cnn(-c2nc3cc(C(=O)NCc4ccccc4)ccc3[nH]2)c1` [Example 121, 1-(5-Benzylcarbamoyl-1H-benzoimidazol-2-yl)-1H-pyrazole-4-carboxylic Acid], the EPO secretion, % of control compound in experiment [1] turned out to be 18.5%. Further, the “Enzyme pIC50” value in experiment [2] came out at 7.1.

For `O=C(O)c1cnn(-c2nc3cc(C(=O)NN4CCOCC4)ccc3[nH]2)c1` [Example 122, 1-[5-(Morpholin-4-ylcarbamoyl)-1H-benzoimidazol-2-yl]-1H-pyrazole-4-carboxylic Acid], in experiment [1], the EPO secretion, % of control compound was determined as 5.4%. The “Enzyme pIC50” value in experiment [2] amounted to 6.6.

On to `O=C(O)c1cnn(-c2nc3cc(COCc4ccccc4)ccc3[nH]2)c1` [Example 123, 1-(5-Benzyloxymethyl-1H-benzoimidazol-2-yl)-1H-pyrazole-4-carboxylic Acid], for which, in experiment [1], the EPO secretion, % of control compound came out at 61.1%. Also, the “Enzyme pIC50” value in experiment [2] turned out to be 6.3.

As for `O=C(O)c1cnn(-c2nc3c(Br)cc(F)cc3[nH]2)c1` [Example 124, 1-(4-Bromo-6-fluoro-1H-benzoimidazol-2-yl)-1H-pyrazole-4-carboxylic Acid], the EPO secretion, % of control compound in experiment [1] is 2.4%. In addition, the “Enzyme pIC50” value in experiment [2] came out at 6.3.

As for `O=C(O)c1cnn(-c2nc3ccc4scnc4c3[nH]2)c1` [Example 125, 1-(8H-Imidazo[4′,5′:3,4]benzo[2,1-d]thiazol-7-yl)-1H-pyrazole-4-carboxylic Acid], in experiment [1], the EPO secretion, % of control compound is 46.8%. Further, the “Enzyme pIC50” value in experiment [2] is recorded as 6.

With `O=C(O)c1cnn(-c2nc3cc(C(F)(F)F)c(C(F)(F)F)cc3[nH]2)c1` [Example 126, 1-(5,6-Bis-trifluoromethyl-1H-benzoimidazol-2-yl)-1H-pyrazole-4-carboxylic Acid], in experiment [1], the EPO secretion, % of control compound is 82.7%. In addition, the “Enzyme pIC50” value in experiment [2] turned out to be 7.4.

Turning to `O=C(O)c1cnn(-c2nc3c(Cl)c(Cl)c(Cl)cc3[nH]2)c1` [Example 127, 1-(4,5,6-Trichloro-1H-benzoimidazol-2-yl)-1H-pyrazole-4-carboxylic Acid], the EPO secretion, % of control compound in experiment [1] worked out at 70.6%. For the same molecule, the “Enzyme pIC50” value in experiment [2] is 6.9.

On to `O=C(O)c1cnn(-c2nc3c(Br)c(Cl)c(Cl)cc3[nH]2)c1` [Example 128, 1-(4-Bromo-5,6-dichloro-1H-benzoimidazol-2-yl)-1H-pyrazole-4-carboxylic Acid], for which the EPO secretion, % of control compound in experiment [1] amounted to 24.1%. In addition, in experiment [2], the “Enzyme pIC50” value stood at 7.1.

As for `CCNc1cc2nc(-n3cc(C(=O)O)cn3)[nH]c2cc1Cl` [Example 130, 1-(6-Chloro-5-ethylamino-1H-benzoimidazol-2-yl)-1H-pyrazole-4-carboxylic Acid], the EPO secretion, % of control compound in experiment [1] stood at 48%. Further, in experiment [2], the “Enzyme pIC50” value was 6.2.

Take `CCCNc1cc2nc(-n3cc(C(=O)O)cn3)[nH]c2cc1Cl` [Example 131, 1-(6-Chloro-5-propylamino-1H-benzoimidazol-2-yl)-1H-pyrazole-4-carboxylic Acid]: the EPO secretion, % of control compound in experiment [1] was found to be 89%. The “Enzyme pIC50” value in experiment [2] is 6.5.

Turning to `O=C(O)c1cnn(-c2nc3cc(NCc4ccccc4)c(Cl)cc3[nH]2)c1` [Example 132, 1-(5-Benzylamino-6-chloro-1H-benzoimidazol-2-yl)-1H-pyrazole-4-carboxylic Acid], the EPO secretion, % of control compound in experiment [1] worked out at 52.6%. Moreover, in experiment [2], the “Enzyme pIC50” value is 6.2.

`O=C(O)c1cnn(-c2nc3cc(Nc4ccccc4)c(Cl)cc3[nH]2)c1` [Example 133, 1-(6-Chloro-5-phenylamino-1H-benzoimidazol-2-yl)-1H-pyrazole-4-carboxylic Acid]: the EPO secretion, % of control compound in experiment [1] stood at 77%. Also, the “Enzyme pIC50” value in experiment [2] amounted to 6.9.

As to `O=C(O)c1cnn(-c2nc3cc(NCCN4CCOCC4)c(Cl)cc3[nH]2)c1` [Example 134, 1-[6-Chloro-5-(2-morpholin-4-yl-ethylamino)-1H-benzoimidazol-2-yl]-1H-pyrazole-4-carboxylic Acid], in experiment [1], the EPO secretion, % of control compound amounted to 56.5%. For the same molecule, the “Enzyme pIC50” value in experiment [2] came out at 6.3.

`O=C(O)c1cnn(-c2nc3cc(NS(=O)(=O)C4CC4)c(Cl)cc3[nH]2)c1` [Example 135, 1-(6-Chloro-5-cyclopropanesulfonylamino-1H-benzoimidazol-2-yl)-1H-pyrazole-4-carboxylic Acid]: the EPO secretion, % of control compound in experiment [1] came out at 17%. Further, the “Enzyme pIC50” value in experiment [2] turned out to be 6.8.

`CS(=O)(=O)Nc1cc2nc(-n3cc(C(=O)O)cn3)[nH]c2cc1Cl` [Example 136, 1-(6-Chloro-5-methanesulfonylamino-1H-benzoimidazol-2-yl)-1H-pyrazole-4-carboxylic Acid]: in experiment [1], the EPO secretion, % of control compound is 9%. The “Enzyme pIC50” value in experiment [2] stood at 6.8.

For `CCS(=O)(=O)Nc1cc2nc(-n3cc(C(=O)O)cn3)[nH]c2cc1Cl` [Example 137, 1-(6-Chloro-5-ethanesulfonylamino-1H-benzoimidazol-2-yl)-1H-pyrazole-4-carboxylic Acid], the EPO secretion, % of control compound in experiment [1] was determined as 11%. In experiment [2], the “Enzyme pIC50” value came to 6.6.

For the origin of these results see patent publication US10851083B2, “Benzoimidazoles as prolyl hydroxylase inhibitors” (Janssen Pharmaceutica NV, priority 2008, dated 2020).
